According to patent publication US7416736B2, “Antimicrobial compositions” (Janssen Pharmaceutica N.V., priority 2001, dated 2008):

How the values were obtained:
Format in all cases: cell-based
[1] = system: Aspergillus niger IFO 6341; test: MIC against fungi on potato dextrose agar (Working Example 2); details: weight ratio 0:1 (second component alone), 7 days at 28° C.; for MIC: Aspergillus niger, IFO6341, 168 h, read-out: Minimum inhibitory concentration (ppm) against Aspergillus niger
Procedure: (§1) By the following working examples, we describe in greater detail the antimicrobial effectiveness of the antimicrobial compositions of this invention. The term “MIC” as used in these working examples refers to the minimum inhibitory concentration (ppm) of the active ingredient in the antimicrobial compositions. […] The spore suspensions for inoculation used in working example 2 were prepared as follows. Two fungi, Aspergillus niger IFO 6341 and Penicillium funiculosum IFO 6345, were cultured on two potato dextrose agar culture media not containing any biocides, and spores were formed. Next, said fungus spores were dispersed in disinfectant water to which 0.005% lubricant had been added, and two spore suspensions for inoculation were thus prepared. […] Next, test culture media were prepared by adding each of the varying diluted aqueous solutions (0.3 ml) of these antimicrobial compositions to a potato dextrose agar culture medium (15 ml). Each of these test culture media was inoculated with the above spore suspensions for inoculation (1 ml), and after culturing for 7 days at 28° C. Then, the presence or absence of fungus growth on each culture medium was observed visually.

[2] = system: Penicillium funiculosum IFO 6345; test: as above; details: weight ratio 0:1 (second component alone), 7 days at 28° C.; for MIC: Talaromyces funiculosus, IFO6345, 168 h, read-out: Minimum inhibitory concentration (ppm) against Penicillium funiculosum
Procedure: as §1

[3] = system: Chlorella pyrenoidosa NIES 226; test: MIC against algae on Bold's Basal agar (Working Example 3); details: weight ratio 0:1 (second component alone); 14 days at 25° C. and 1500 lux
Procedure: By the following working examples, we describe in greater detail the antimicrobial effectiveness of the antimicrobial compositions of this invention. The term “MIC” as used in these working examples refers to the minimum inhibitory concentration (ppm) of the active ingredient in the antimicrobial compositions. […] The algae suspensions for inoculation used in working example 3 were prepared as follows. Bold's Basal liquid culture medium (50 ml) was inoculated with Chlorella pyrenoidosa NIES 226, it was shake-cultured for 14 days at 25° C., and algae suspensions for inoculation was thus prepared. […] Next, test culture media were prepared by adding each of the varying diluted aqueous solutions (0.1 ml) of these antimicrobial compositions to Bold's Basal agar culture medium (15 ml). Each of these test culture media was inoculated with the above algae suspensions for inoculation (1 ml), and after culturing for 14 days at 25° C. and 1500 lux. Then, the presence or absence of algae growth on each culture medium was observed visually. […] Table 5 lists the MIC, for algae, of the antimicrobial composition of each weight ratio.

[4] = system: Escherichia coli IFO 3972; test: MIC against bacteria in nutrient broth (Working Example 1); details: weight ratio 0:1 (second component alone), 24 hours at 30° C.
Procedure: (§2) By the following working examples, we describe in greater detail the antimicrobial effectiveness of the antimicrobial compositions of this invention. The term “MIC” as used in these working examples refers to the minimum inhibitory concentration (ppm) of the active ingredient in the antimicrobial compositions. […] The bacterial suspensions for inoculation used in working example 1 were prepared as follows. […] Next, test culture media were prepared by adding each of the varying diluted aqueous solutions (0.2 ml) of the antimicrobial compositions to a nutrient broth culture medium (10 ml). Each of these test culture media was inoculated with the above bacterial suspensions for inoculation (0.1 ml), and after culturing for 24 hours at 30° C. Then, the presence or absence of bacteria growth was assessed by visually observing the turbidity of the culture medium.

[5] = system: Staphylococcus aureus IFO 12732; test: as above; details: weight ratio 0:1 (second component alone), 24 hours at 30° C.
Procedure: as §2

| SMILES | MIC [1] | MIC [2] | Minimum inhibitory concentration (ppm) against Chlorella pyrenoidosa [3] | Minimum inhibitory concentration (ppm) against Escherichia coli [4] | Minimum inhibitory concentration (ppm) against Staphylococcus aureus [5] | Minimum inhibitory concentration (ppm) against Aspergillus niger [1] | Minimum inhibitory concentration (ppm) against Penicillium funiculosum [2] | MIC ([4]; Escherichia coli, IFO3972, read-out: Minimum inhibitory concentration (ppm) against Escherichia coli) | MIC ([5]; Staphylococcus aureus, IFO12732, read-out: Minimum inhibitory concentration (ppm) against Staphylococcus aureus) |
| --- | --- | --- | --- | --- | --- | --- | --- | --- | --- |
| CCCCCCCCn1sccc1=O [i, 2-(n-octyl)-3(2H)-isothiazolone] | 0.4 mg/L | 0.2 mg/L | 20 ppm |  |  |  |  |  |  |
| [O-][n+]1ccccc1SSc1cccc[n+]1[O-] [f, 2,2-dithio-bis(pyridine-1-oxide)] |  |  | 10 ppm | 10 ppm | 4 ppm | 10 ppm | 1 ppm |  |  |
| CCCCNC(=O)OCC#CI [h, 3-iodo-2-propynyl butylcarbamate] | 1 mg/L | 1 mg/L | 40 ppm |  |  |  |  |  |  |
| CSc1nc(NC2CC2)nc(NC(C)(C)C)n1 [g, 2-methylthio-4-t-butyl amino-6-cyclopropyl amino-s-triazine] |  |  | 0.1 ppm |  |  |  |  |  |  |
| [O-][n+]1ccccc1[S-].[O-][n+]1ccccc1[S-].[Zn+2] [c, Zinc 2-pyridine thiol-1-oxide] |  |  | 20 ppm | 40 ppm | 40 ppm | 10 ppm | 1 ppm |  |  |
| Clc1ccc(OCOCC#CI)cc1 [b, 1-chloro-4-[[(3-iodo-2-propynyl)oxy]methoxy] benzene] | 1 mg/L | 4 mg/L | 10 ppm |  |  |  |  | 1000 mg/L | 20 mg/L |
| [Cu+2].[O-][n+]1ccccc1[S-].[O-][n+]1ccccc1[S-] [d, Copper 2-pyridine thiol-1-oxide] |  |  | 100 ppm | 200 ppm | 10 ppm | 400 ppm | 1 ppm |  |  |
| [Na+].[O-][n+]1ccccc1[S-] [e, 2-pyridine thiol-1-oxide sodium salt] |  |  | 40 ppm | 200 ppm | 10 ppm | 400 ppm | 2 ppm |  |  |
